Tests used:
Assay type in all cases: cell-based
Details in all cases: for G protein dissociation, AUC of 10 μM compound (maximal response): 10 μM ligand alone
hCB1 mutant S173A^2.60 = target: T1, hCB1 mutant S173A^2.60 (Homo sapiens, UniProt P21554, S173A); assay: pIRES G protein dissociation BRET assay, S173A mutant
T1 construct: expressed in transfected cells; host or cells: HEK293
Description: (§1) Mutagenesis studies using the pIRES G protein dissociation assay were performed using human embryonic kidney 293 (HEK293) wild-type cells transiently transfected with pplss-3HA-hCB1 [31] or modified receptor. All cells were cultured in Dulbecco’s Modified Eagle’s Medium (DMEM) supplemented with 10% fetal bovine serum (FBS), grown in […] vented-cap flasks, and maintained in a 37° C incubator at 5% CO2.
(§2) Mutants of pplss-3HA-hCB1 (WT, pEF-V4-HisA (pEF4a) construct) were generated using a modified QuikChange® (Stratagene, San Diego, CA, USA) site-directed mutagenesis approach using KAPA HiFi Hotstart Polymerase (KAPA Biosystems, Roche, Basel, Switzerland). Briefly, single-stranded primers used to modify one or two base pairs within the target amino acid using PCR were purchased from Integrated DNA Technologies (IDT, Coralville, IA, USA). All pplss-hCB1 mutants were generated using the pplss-3HA-hCB1 pEF4a as parental DNA. PCR products were generated using recommended cycling conditions and treated with Dpn1 (New England Biolabs, Ipswich, MA, USA) overnight at 37° C to digest methylated parental DNA. PCR products were electrophoresed and run on an agarose gel (1% (w.v^−1) agarose, HydraGene, Piscataway, NJ, USA) containing 0.25 μg/mL ethidium bromide (Sigma-Aldrich, St. Louis, MO, USA). Gels were run in 40 mM TRIS-acetate buffer containing […] (pH 8.3) at 100 V for 30 min, maximum current and included a 1kb+ DNA ladder (Invitrogen, Thermo Fisher Scientific, Carlsbad, CA, USA) for reference. Gels were imaged using an UVTech Alliance Q9 Mini transilluminator (UVTech Alliance, Cambridge, UK). Digested products were then used to transform NEB 5α competent E. coli cells in accordance with manufacturer’s instructions. Briefly, transformed PCR products were grown overnight on 8.5 mL Luria Broth agar plates (containing 100 μg/mL ampicillin) at 37° C. Single bacterial colonies were picked and inoculated in Luria Broth (containing 100 μg/mL ampicillin) and grown overnight in a shaking incubator at 37° C. Plasmids were then harvested and purified using a Qiagen miniprep kit (Qiagen, Hilden, Germany) and validated using sequencing (Genetics Analysis Service, University of Otago, Dunedin, New Zealand).
(§3) Dissociation of the G protein heterotrimer, specifically Gαi1, Gβ1, and Gγ2, was investigated using a bioluminescence resonance energy transfer (BRET) assay with the pIRES biosensor first described by and adapted by.
(§4) Briefly, 3 × 10^6 WT HEK293 cells were seeded into 10 cm culture dishes (Corning, Corning, NY, USA; one dish for the control receptor and one for each modified receptor) and incubated at 37 °C for 24 h to gain 50–60% confluency. Culture medium was then replaced and transfection mixtures containing 3 μg pIRES vector and 1 μg receptor (either pplss-hCB1 or modified receptor) were prepared (4 μg total DNA). Plasmids were initially diluted in sterile Milli-Q water before being diluted in OptiMEM reduced serum medium (Thermo Fisher Scientific, Waltham, MA, USA) and combined with […] polyethylenimine (PEI)-max (1:9 DNA:PEI-max ratio) and incubated at room temperature for 20 min. Transfection mixtures were then added to cells via dropwise addition, and cells were incubated at 37 °C for 24 h. Transfected cells were lifted and plated at 50,000 cells/well into poly-d-lysine (PDL; Sigma-Aldrich) coated white 96-well CulturPlates (PerkinElmer, Waltham, MA, USA) and incubated for a further 24 h at 37 °C.
(§5) To assay, the culture medium was aspirated and cells were washed with phosphate buffered saline (PBS) and replaced with BRET assay medium (phenol red free DMEM containing 25 mM HEPES and supplemented with 1 mg/mL bovine serum albumin; BSA, MP Biomedicals, Auckland, New Zealand) for 30 min prior to drug addition (serum starve). Drugs were prepared at 10 × concentration in BRET assay medium, combined in a polypropylene V-bottom plate, and incubated at 37° C prior to drug stimulation.

hCB1 mutant H154A^2.41 = target: T2, hCB1 mutant H154A^2.41 (Homo sapiens, UniProt P21554, H154A); assay: pIRES G protein dissociation BRET assay, H154A mutant
T2 construct: expressed in transfected cells; host or cells: HEK293
Description: as §1, §2, §3, §4, §5

hCB1 mutant F237A^4.46 = target: T3, hCB1 mutant F237A^4.46 (Homo sapiens, UniProt P21554, F237A); assay: pIRES G protein dissociation BRET assay, F237A mutant
T3 construct: expressed in transfected cells; host or cells: HEK293
Description: as §1, §2, §3, §4, §5

hCB1 mutant K232A^4.41 = target: T4, hCB1 mutant K232A^4.41 (Homo sapiens, UniProt P21554, K232A); assay: pIRES G protein dissociation BRET assay, K232A mutant
T4 construct: expressed in transfected cells; host or cells: HEK293
Description: as §1, §2, §3, §4, §5

hCB1 mutant L209A^3.45 = target: T5, hCB1 mutant L209A^3.45 (Homo sapiens, UniProt P21554, L209A); assay: pIRES G protein dissociation BRET assay, L209A mutant
T5 construct: expressed in transfected cells; host or cells: HEK293
Description: as §1, §2, §3, §4
as §5, with “stimulation. […]” for “stimulation.”

hCB1 mutant R220A^3.56 = target: T6, hCB1 mutant R220A^3.56 (Homo sapiens, UniProt P21554, R220A); assay: pIRES G protein dissociation BRET assay, R220A mutant
T6 construct: expressed in transfected cells; host or cells: HEK293
Description: as §1, §2, §3, §4, §5

hCB1 mutant F408A^8.54 = target: T7, hCB1 mutant F408A^8.54 (Homo sapiens, UniProt P21554, F408A); assay: pIRES G protein dissociation BRET assay, F408A mutant
T7 construct: expressed in transfected cells; host or cells: HEK293
Description: as §1, §2, §3, §4, §5

[1] = 10 μM CP55940 in the presence of 10 μM ZCZ011
[2] = in the presence of 10 μM GAT228
[3] = in the presence of 10 μM GAT229
[4] = top of the curve (maximal response)

T2 sequence (P21554 whole entry H154A): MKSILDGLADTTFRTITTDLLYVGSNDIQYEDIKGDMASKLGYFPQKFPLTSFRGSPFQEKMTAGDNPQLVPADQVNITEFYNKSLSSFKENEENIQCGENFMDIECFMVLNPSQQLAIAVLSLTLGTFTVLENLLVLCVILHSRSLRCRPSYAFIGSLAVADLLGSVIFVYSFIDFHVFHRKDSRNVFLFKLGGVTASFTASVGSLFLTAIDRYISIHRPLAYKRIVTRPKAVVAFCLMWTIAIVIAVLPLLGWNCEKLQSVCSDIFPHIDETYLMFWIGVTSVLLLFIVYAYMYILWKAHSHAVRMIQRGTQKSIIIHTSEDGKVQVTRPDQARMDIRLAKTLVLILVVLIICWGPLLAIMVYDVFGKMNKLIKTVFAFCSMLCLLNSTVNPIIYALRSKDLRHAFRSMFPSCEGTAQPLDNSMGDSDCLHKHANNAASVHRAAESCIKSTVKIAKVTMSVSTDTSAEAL
T7 sequence (P21554 whole entry F408A): as the sequence (P21554 whole entry H154A) above, with A154H, F408A counted along it
T4 sequence (P21554 whole entry K232A): as the sequence (P21554 whole entry H154A) above, with A154H, K232A counted along it
T6 sequence (P21554 whole entry R220A): as the sequence (P21554 whole entry H154A) above, with A154H, R220A counted along it
T1 sequence (P21554 whole entry S173A): as the sequence (P21554 whole entry H154A) above, with A154H, S173A counted along it
T5 sequence (P21554 whole entry L209A): as the sequence (P21554 whole entry H154A) above, with A154H, L209A counted along it
T3 sequence (P21554 whole entry F237A): as the sequence (P21554 whole entry H154A) above, with A154H, F237A counted along it

With CCCCCCC(C)(C)c1ccc([C@@H]2C[C@H](O)CC[C@H]2CCCO)c(O)c1 [CP55940] the “G protein dissociation, AUC, 10 μM CP55940 + 10 μM ZCZ011” value (hCB1 mutant S173A^2.60; [1]) was −186.8 ± 5.5, the “G protein dissociation, AUC of 10 μM compound (maximal response)” value (“G protein dissociation … (maximal response)” below) (hCB1 mutant S173A^2.60) was −146.2 ± 5.5 and the “EMAX, CP55940 + 10 μM GAT228” value (hCB1 mutant S173A^2.60; [2]) was −176.1 ± 6.9 ∆BRET.sec. For the same molecule, the “EMAX, CP55940 + 10 μM GAT229” value (hCB1 mutant S173A^2.60; [3]) was −186.4 ± 7.5 ∆BRET.sec, the “EMAX, CP55940 Alone” value (hCB1 mutant S173A^2.60; [4]) was −143.0 ± 5.7 ∆BRET.sec and the “G protein dissociation, AUC, 10 μM CP55940 + 10 μM ZCZ011” value (hCB1 mutant H154A^2.41; [1]) was −189.5 ± 8.5. For the same molecule, the “EMAX, CP55940 + 10 μM GAT228” value (hCB1 mutant H154A^2.41; [2]) was −200.5 ± 11.6 ∆BRET.sec, the “EMAX, CP55940 + 10 μM GAT229” value (hCB1 mutant H154A^2.41; [3]) was −210.6 ± 10.1 ∆BRET.sec and the “EMAX, CP55940 Alone” value (hCB1 mutant H154A^2.41; [4]) was −151.8 ± 5.9 ∆BRET.sec. For the same molecule, the “G protein dissociation, AUC, 10 μM CP55940 + 10 μM ZCZ011” value (hCB1 mutant F237A^4.46; [1]) was −85.2 ± 9.9, the “G protein dissociation … (maximal response)” value (hCB1 mutant F237A^4.46) was −69.8 ± 6.5 and the “EMAX, CP55940 + 10 μM GAT228” value (hCB1 mutant F237A^4.46; [2]) was −69.4 ± 6.4 ∆BRET.sec. The “EMAX, CP55940 + 10 μM GAT229” value (hCB1 mutant F237A^4.46; [3]) was −67.4 ± 8.3 ∆BRET.sec, the “EMAX, CP55940 Alone” value (hCB1 mutant F237A^4.46; [4]) was −69.8 ± 6.7 ∆BRET.sec and the “G protein dissociation, AUC, 10 μM CP55940 + 10 μM ZCZ011” value (hCB1 mutant K232A^4.41; [1]) was −194.9 ± 7.2. The “G protein dissociation … (maximal response)” value (hCB1 mutant K232A^4.41) was −167.7 ± 9.6, the “EMAX, CP55940 + 10 μM GAT228” value (hCB1 mutant K232A^4.41; [2]) was −181.9 ± 8.6 ∆BRET.sec and the “EMAX, CP55940 + 10 μM GAT229” value (hCB1 mutant K232A^4.41; [3]) was −194.9 ± 9.0 ∆BRET.sec. The “EMAX, CP55940 Alone” value (hCB1 mutant K232A^4.41; [4]) was −160.6 ± 7.6 ∆BRET.sec, the “G protein dissociation, AUC, 10 μM CP55940 + 10 μM ZCZ011” value (hCB1 mutant L209A^3.45; [1]) was −71.3 ± 4.2 and the “G protein dissociation … (maximal response)” value (hCB1 mutant L209A^3.45) was −42.7 ± 2.8. For the same molecule, the “EMAX, CP55940 + 10 μM GAT228” value (hCB1 mutant L209A^3.45; [2]) was −43.2 ± 4.5 ∆BRET.sec, the “EMAX, CP55940 + 10 μM GAT229” value (hCB1 mutant L209A^3.45; [3]) was −51.9 ± 2.8 ∆BRET.sec and the “EMAX, CP55940 Alone” value (hCB1 mutant L209A^3.45; [4]) was −39.8 ± 1.1 ∆BRET.sec. For the same molecule, the “G protein dissociation, AUC, 10 μM CP55940 + 10 μM ZCZ011” value (hCB1 mutant R220A^3.56; [1]) was −137.8 ± 5.0, the “G protein dissociation … (maximal response)” value (hCB1 mutant R220A^3.56) was −112.1 ± 2.9 and the “EMAX, CP55940 + 10 μM GAT228” value (hCB1 mutant R220A^3.56; [2]) was −140.1 ± 13.5 ∆BRET.sec. For the same molecule, the “EMAX, CP55940 + 10 μM GAT229” value (hCB1 mutant R220A^3.56; [3]) was −144.6 ± 10.4 ∆BRET.sec, the “EMAX, CP55940 Alone” value (hCB1 mutant R220A^3.56; [4]) was −110.8 ± 2.8 ∆BRET.sec and the “G protein dissociation, AUC, 10 μM CP55940 + 10 μM ZCZ011” value (hCB1 mutant F408A^8.54; [1]) was −159.7 ± 13.4. The “G protein dissociation … (maximal response)” value (hCB1 mutant F408A^8.54) was −131.7 ± 10.4, the “EMAX, CP55940 + 10 μM GAT228” value (hCB1 mutant F408A^8.54; [2]) was −148.4 ± 11.4 ∆BRET.sec and the “EMAX, CP55940 + 10 μM GAT229” value (hCB1 mutant F408A^8.54; [3]) was −154.0 ± 14.5 ∆BRET.sec. The “EMAX, CP55940 Alone” value (hCB1 mutant F408A^8.54; [4]) was −128.6 ± 12.1 ∆BRET.sec.
With O=[N+]([O-])C[C@H](c1ccccc1)c1c(-c2ccccc2)[nH]c2ccccc12 [GAT228] the “G protein dissociation … (maximal response)” value (hCB1 mutant S173A^2.60) was −105.5 ± 7.6, the “G protein dissociation … (maximal response)” value (hCB1 mutant H154A^2.41) was −101.6 ± 6.9 and the “G protein dissociation … (maximal response)” value (hCB1 mutant F237A^4.46) was −40.8 ± 2.8. For the same molecule, the “G protein dissociation … (maximal response)” value (hCB1 mutant K232A^4.41) was −94.0 ± 10.5, the “G protein dissociation … (maximal response)” value (hCB1 mutant L209A^3.45) was −19.0 ± 3.3 and the “G protein dissociation … (maximal response)” value (hCB1 mutant R220A^3.56) was −85.2 ± 13.6. The “G protein dissociation … (maximal response)” value (hCB1 mutant F408A^8.54) was −90.3 ± 8.3.
O=[N+]([O-])C[C@@H](c1ccccc1)c1c(-c2ccccc2)[nH]c2ccccc12 [GAT229] was tested, and the “G protein dissociation … (maximal response)” value (hCB1 mutant S173A^2.60) was −137.3 ± 4.8, the “G protein dissociation … (maximal response)” value (hCB1 mutant H154A^2.41) was −154.6 ± 7.8 and the “G protein dissociation … (maximal response)” value (hCB1 mutant F237A^4.46) was −52.4 ± 5.2. The “G protein dissociation … (maximal response)” value (hCB1 mutant K232A^4.41) was −134.5 ± 7.9, the “G protein dissociation … (maximal response)” value (hCB1 mutant L209A^3.45) was −25.1 ± 3.5 and the “G protein dissociation … (maximal response)” value (hCB1 mutant R220A^3.56) was −102.9 ± 9.9. For the same molecule, the “G protein dissociation … (maximal response)” value (hCB1 mutant F408A^8.54) was −110.0 ± 8.6.
With Cc1ccc2c(C(C[N+](=O)[O-])c3cccs3)c(-c3ccccc3)[nH]c2c1 (stereo not shown) [ZCZ011, 6-Methyl-3-(2-nitro-1-(thiophen-2-yl)ethyl)-2-phenyl-1 H-indole] the “G protein dissociation … (maximal response)” value (hCB1 mutant S173A^2.60) was −144.2 ± 6.8, the “G protein dissociation … (maximal response)” value (hCB1 mutant H154A^2.41) was −129.4 ± 5.1 and the “G protein dissociation … (maximal response)” value (hCB1 mutant F237A^4.46) was −64.2 ± 4.1. For the same molecule, the “G protein dissociation … (maximal response)” value (hCB1 mutant K232A^4.41) was −140.0 ± 7.3, the “G protein dissociation … (maximal response)” value (hCB1 mutant L209A^3.45) was −34.4 ± 2.9 and the “G protein dissociation … (maximal response)” value (hCB1 mutant R220A^3.56) was −95.7 ± 7.7. The “G protein dissociation … (maximal response)” value (hCB1 mutant F408A^8.54) was −116.9 ± 10.1.

Reference: PMC10892375, “Determination of the Cannabinoid CB1 Receptor’s Positive Allosteric Modulator Binding Site through Mutagenesis Studies” (Pharmaceuticals, 2024)
